Measurements: patent US7998474B2, “Methods for treating an inflammatory disease of the bowel” (Rowett Research Institute, priority 2001, dated 2011)
Marks after values point to notes of the source that are not given here.

Tests used:
Caco-2 cells = assay: Inflammatory cytokine gene expression in Caco-2 cells exposed to S. enteritidis (macroarray, Northern, real-time PCR); assay type: cell-based
PPARγ [1] = assay: Northern hybridisation of PPAR mRNA in Caco-2 cells; assay type: cell-based; details: 2 hours
PPARγ [2] = assay: Cellular distribution of PPARγ in Caco-2 cells (immunocytochemistry, western blot)
RelA [NF-κB p65] [3] = assay: Immunofluorescence localisation of RelA in Caco-2 cells; assay type: cell-based
[4] = Body weight, tissue weights and composition, faecal output in rats; assay type: in vivo, Hooded Lister rats
Description: Twenty-four male specific pathogen-free Hooded Lister rats (40 g), bred in the small animal unit of the Rowett Research Institute, were weaned at 19 days and immediately transferred to a Class II facility. They were housed individually in metabolism cages (Techniplast, Kettering, UK) within flexi-film isolators (Moredun, Animal Health, Penicuik, UK) for the duration of the study (21 days). Nesting tunnels were provided in each metabolism cage and cages were arranged within the isolators to allow sight of but not contact with other animals. Sterile distilled water was available at all times. Rats were weighed daily and faeces was collected throughout the study.
Data are the means ISD (n=3). The rats were initially given free access to a high quality semi-synthetic (100 g protein kg^−1) lactalbumin-based diet (Grant et al, 2000). […] This was the average daily free intake observed for rats of the same age after oral infection with Salmonella enterica var. Enteritidis and around 70% of the free intake of this diet by non-infected animals. The rats were housed and managed in this manner from weaning to reduce environmental exposure to bacteria and cross-contamination post-weaning (Grant, 1996).
Twelve of the rats were given B. thetaiotaomicron (approximately 10^8 CFU) once daily from weaning (19d) through to completion of the study. At 34 days of age, six rats pre-treated with B. thetaiotaomicron and six controls were given, by gavage, a single dose of 0.8 ml of Salmonella serovar Enteritidis S1400 culture (approximately 10^9 CFU). The remaining rats were given the equivalent amount of culture medium. All rats were returned to their cages and fed lactalbumin-based diet (7 g rat^−1 day^−1) for a further 6 days. On the final day, the rats were fed 2 g of diet and were killed by halothane (Rhone Merieux, Essex, UK) overdose and exsanguination exactly two hours later. The abdomen was opened and tissues were aseptically removed. […]
DNA, RNA, protein were determined as before by the diphenylamine, orcinol and modified Lowry methods (Grant et al, 2000). […]

leukocyte-elastase = assay: Elastase in faeces or intestine contents; assay type: in vivo, Hooded Lister rats; details: mean ± SD, n = 6
Method: Freeze dried faeces or intestine contents were extracted (1:10 w/v) in ice-cold 0.5M potassium phosphate pH 6.0 containing HETAB, EDTA and NaN3 (1 g/l), left on ice for 30 min, centrifuged (3000 g, 30 min, 4° C.) and the supernatants were frozen.
Sample or leukocyte-elastase (Sigma-Aldrich, Poole, UK) was serially diluted in 0.2M Tris HCl pH 8.0 containing 1 M NaCl and leupeptin (1 mg/l) on a microtiter plate. Substrate (N-succinyl-ala-ala-val-p-nitroanilide, 0.2 g/l, Sigma-Aldrich, Poole, UK) was added and the absorbance at 405 nm monitored immediately and at intervals up to 20 hours during incubation at 37° C. Values were expressed as leukocyte-elastase equivalents.

Immunoreactive MPO = Immunoreactive MPO in intestinal contents or faeces (competitive ELISA); assay type: in vivo, Hooded Lister rats; details: during 6d post-infection, mean ± SD, n = 6
Method: Immunoreactive MPO in intestinal contents or faeces was determined by a competitive ELISA method. Microtiter plates (Immulon 4, Dynex Technologies, Ashford, UK) were coated [10 ng/well] with human myeloperoxidase in 10 mM phosphate buffered saline pH 7.4 [PBS] overnight at 4° C. After washing [PBS containing Tween-20 (1 ml/l], plates were blocked with PBS containing bovine serum albumin (BSA, 10 g/l) for 1 hour at room temperature. Plates were washed and samples or standards added [50 μl/well] and serially diluted in PBS containing BSA (1 g/l), Tween-20 (1 ml/l) and leupeptin (1 mg/l). Rabbit anti-human myeloperoxidase antibody [Calbiochem, UK, 50 μl/well of 1:4000 dilution] was also added. The plates were incubated for 1 hour, washed and then reacted for 1 hour with biotinylated anti-rabbit IgG followed by Extravidin/peroxidase (EXTRA-3 kit, Sigma-Aldrich, Poole, UK). After washing, TMB reagent (7 μl/well) was added and incubated in the dark for up to 2 hours. The reaction was stopped by addition (50 μl/well) of 0.18M H2SO4 and the absorbance read at 450 nm. Values were expressed as immunoreactive MPO equivalents.

RelA [NF-κB p65] [5] = assay: Supershift EMSA on Caco-2 nuclear extracts; assay type: cell-based; details: S. enteritidis, 2 hours, heat inactivation 70° C. 15 minutes
Method: Where indicated B. thetaiotaomicron was heat inactivated at 70° C. for 15 minutes prior to its addition to the Caco-2 cells.
Nuclear extracts were incubated with single stranded ^32P-labeled oligonucleotide probes containing consensus binding sequences for NF-κB (SEQ ID NO:1 5′-[…] -3′) or AP-1 (SEQ ID NO: 2 5′-[…] -3′), separated by electrophoresis and visualized by autoradiography. EMSA supershifts were performed using specific NF-κB subunit antibodies. Effects of B. thetaiotaomicron on NFκB and AP-1 signaling were determined by EMSA, western blotting (protein and phosphoprotein), promoter-specific reporter analysis and target gene expression (eg. fos and jun).

IL-8 = IL-8 protein in culture supernatants (ELISA); details: co-culture with S. enteritidis over 4 h (S. enteritidis alone 400 pg/ml)
[6] = Skeletal (gastrocnemius) muscle accretion in rats; assay type: in vivo, Hooded Lister rats; details: 6 d post-infection
Method: Gastrocnemius muscle is taken as representative of skeletal muscle and total skeletal muscle in young Hooded-Lister rats as approximately 47 times the weight of the gastrocnemius muscle (Bardocz et al, 1996). Initial weight of gastrocnemius muscles 804±10 mg wet weight [194±7 mg dry weight] per 100 g initial fresh body weight.
Further pieces of jejunum and ileum (15-25 cm from the pylorus and 15-25 cm from the ileo-caecal junction respectively) were collected and frozen in liquid nitrogen for biochemical analysis, as was the remaining small intestine tissue (˜40 cm), liver, spleen, kidney, thymus, lungs, heart and gastrocnemius hind-limb muscles. These were weighed, freeze-dried and reweighed.

S. enteritidis = S. enteritidis infection of minimal flora rats, MPO in ileal mucosa; details: 10^8 cfu B. thetaiotaomicron in jelly for 19 days, then 10^8 S. enteritidis, 6 days post infection, P<0.001
p38 MAP kinase = assay: Western blot of MAP kinase phosphorylation in Caco-2 cells; assay type: cell-based; details: co-incubation
NF-κB = NF-κB luciferase reporter in transfected Caco-2 cells; assay type: cell-based; details: bacteria 2 hours, luciferase after 8 hours
Method: C) Caco-2 cells were transfected with PPARγ DN and a NF-κB luciferase reporter construct (DN), and compared with control cells transfected with NF-κB luciferase reporter alone (MOCK).
Double transfection studies with PPARγ DN and an NF-κB luciferase reporter (gifted by Dr Israel, Pasteur Institute, Paris, France) were performed. […] To avoid this we stimulated the cells for 2 hours and then removed the bacteria by washing and determined luciferase protein production after 8 hours. We found both in the control and PPARγ DN transfected cells, that S. enteritidis induced NF-κB activation and luciferase protein synthesis (P<0.001) (FIG. 5C). In the PPARγ wild type (NT) transfected cells (luciferase alone) this response was attenuated by B. thetaiotaomicron (P<0.028), but not in dominant negative (DN) transfected cells (FIG. 5C). Similarly, there was modification of the cellular distribution of RelA, as determined using immunocytochemistry and laser scanning confocal microscopy (LSCM), in cells transfected with green fluorescent protein (GFP) with and without PPARγ DN. In the control cells (GFP alone) the distribution of RelA was predominantly cytosolic as described above for non-transfected cells (FIG. 5D (insert B,C)). In PPARγ DN transfected cells, the distribution was irregular and RelA localised to both the cytosolic and nuclear compartments (FIG. 5D, (insert D, E)).

RelA = assay: Immunoprecipitation of RelA / PPARγ from Caco-2 cells; assay type: cell-based
Description: Immuno-precipitates were resolved using SDS-PAGE. Western blots were developed using a monoclonal anti-RelA [NF-κB p65], anti-PPARγ antibodies and anti-HDAC3 (Santa Cruz).
A) Immuno-detection RelA. Caco-2 cells prepared following standard culture protocol, treatment groups (1-4). Immunoprecipitates prepared using anti-PPARγ sepharose conjugate.

Myeloperoxidase (MPO) = Myeloperoxidase (MPO) activity in rat tissue; assay type: in vivo, Hooded Lister rats; details: 6d post-infection, mean ± SD, n = 6
Method: Tissue samples were homogenised (1:80 w/v) in ice-cold 5 mM potassium phosphate buffer pH 6.0 using a Janke-Kunkel Ultra-Turrax T25 tissue homogeniser at 20,000 rev min^−1 for 30 seconds and centrifuged (3000 g×30 min, 4° C.). The pellet (1:20 w/v) was sonicated (3×5 sec) in ice-cold 0.5M potassium phosphate pH 6.0 containing hexadecyltrimethyl-ammonium bromide (HETAB, 5 g/l) and ethylenediaminetetraacetic acid (EDTA, 3.72 g/1), left on ice for 30 min and centrifuged (3000 g×30 min, 4° C.) [Stucchi et al, 2000]. The supernatant was frozen until assayed. Myeloperoxidase (MPO) activity was determined by monitoring H2O2 dependent oxidation of 3,3′,5,5′-tetramethylbenzidine (TMB, Dynex Technologies, Ashford, UK) in 50 mM potassium phosphate buffer pH 6.0 (Zimmerman and Granger, 1990). Absorbance at 450 nm was measured after termination of the reaction with 0.18M H2SO4. Human myeloperoxidase (Calbiochem, UK) was used as a standard and values were expressed as MPO equivalents.

human PMNs = assay: Transepithelial migration of PMN through Caco-2 monolayer (MPO assay); details: Caco-2 Transwell, S. enteritidis, MPO readout
[7] = Viability of the bacterium in jelly; details: commercial jelly prepared under anaerobic conditions, set at 4° C.
Method: Ten ml of B. thetaiotaomicron culture was centrifuged (2000 g, 12 min), the pellet was washed with 0.05M phosphate buffered saline pH 7.2 and then resuspended in commercial jelly [10 ml, 37° C., prepared under anaerobic conditions]. The jelly was poured into a sterile petri dish under CO2 and allowed to set at 4° C. Approximately 1 hour later, the jelly was cut into weighed amounts (0.5 g, ˜10^8 CFU B. thetaiotaomicron) and fed to the rats. The bacterium remained viable for at least 6 hours under these conditions. However, usually all jelly was eaten within a few minutes of being placed in the cage.

[8] = 800 nM for 4 hours, cells treated with S. enteritidis alone

Compound: CCCCC/C=C/C=C1/C(=O)C=C[C@@H]1C/C=C\CCCC(=O)O [15d-PGJ2, 15-deoxy-Δ^12,14-prostaglandin J2, reference compound]
- Activation of inflammatory cytokine expression (TNF-α, IL-8, COX-2) by S. enteritidis (Caco-2 cells; 10^8 S. enteritidis plus drug 10-30 μM, 2 hours, Northern): attenuated
- PPARγ mRNA after PPAR ligand (PPARγ [1]; Caco-2 cells, 10^8 S. enteritidis plus 30 μM ligand): decreased

Compound: CCC(=C/[C@H](C)C/C=C/C(C)=C/[C@@H](C)C(=O)[C@@H](C)[C@H](O)[C@@H](C)C/C(C)=C/C(=O)O)/C=C/[C@@H]1OC(=O)C=C[C@@H]1C [LMB, leptomycin B]
- Nucleocytoplasmic shuttling of PPARγ induced by co-culture of S. enteritidis and B. thetaiotaomicron (PPARγ [2]; Caco-2 cells, inhibitor treatment): not blocked
- RelA in nuclei after inhibition of CRM-1-dependent nuclear export (RelA [NF-κB p65] [3]; cells co-cultured with S. enteritidis and B. thetaiotaomicron): caused an accumulation of RelA in nuclei

Compound: CC(/C=C/C(=O)NO)=C\[C@@H](C)C(=O)c1ccc(N(C)C)cc1 [TSA, trichostatin A]
- Exit of PPARγ to cytosol after HDAC inhibition (PPARγ [2]; [8]): accelerated exit of PPARγ to cytosol
- PPARγ localisation in S. enteritidis-treated Caco-2 cells with inhibitor (PPARγ [2]; S. enteritidis-treated Caco-2 cells): induce punctate cytosolic labeling and export of PPARγ from the nucleus
- p65 nuclear accumulation after HDAC inhibition (RelA [NF-κB p65] [3]; [8]): partial p65 accumulation

Compound: Bacteroides thetaiotaomicron [BT]
- Cellular distribution of PPARγ (PPARγ [2]; Caco-2 cells, co-culture of S. enteritidis with B. thetaiotaomicron): redistributed to the cytosol
- Water content of small intestine ([4]; 6 d post-infection): 745 ± 24 mg/g
- Weight of Gastrocnemius muscles ([4]; 6d post-infection, mean ± SD, n = 6): 834 ± 22^a mg wet weight/100 g fresh body weight
- Adverse effect on gut or systemic metabolism ([4]; specific pathogen-free rats, daily B. thetaiotaomicron from weaning): no indications that B. thetaiotaomicron adversely affected gut or systemic metabolism
- IL-10 gene expression (Caco-2 cells): not affected
- Induction of TNF-α, IL-8, MIP-2α and COX-2 expression following S. enteritidis exposure (Caco-2 cells; 10^8 S. enteritidis with 10^9 commensal bacteria, 2 hours): attenuated
- Intestinal contents Elastase (leukocyte-elastase; 6d post-infection): 210 ± 0.38^a μg
- Faeces Elastase (leukocyte-elastase; during 6d post-infection): 5.7 ± 1.0^a μg/d
- Faeces MPO (Immunoreactive MPO): 2.6 ± 1.0^a μg/d
- RelA response (supershift EMSA) (RelA [NF-κB p65] [5]): inhibited
- IL-8 protein in culture supernatants (IL-8): 230 pg/mL
- Gastrocnemius muscle accretion rate, dry weight [6]: 4.2±1.0 mg dry weight per day
- Gastrocnemius muscle accretion rate, wet weight [6]: 17.0±4.2 mg wet weight per day
- Level of MPO in the ileal mucosa (S. enteritidis): significantly attenuated
- mRNA for PPARα and PPARγ (PPARγ [1]; Caco-2 cells exposed to S. enteritidis and B. thetaiotaomicron): decreased
- Translocation of RelA to the nucleus (RelA [NF-κB p65] [3]; Caco-2 cells, 10^8 S. enteritidis, 2 hours): abolish the translocation of RelA to the nucleus
- p38 phosphorylation induced by Salmonella (p38 MAP kinase): not modified
- S. enteritidis induced NF-κB luciferase response, PPARγ dominant negative (DN) transfected cells (NF-κB): not
- S. enteritidis induced NF-κB luciferase response, PPARγ wild type cells (luciferase alone) (NF-κB; P<0.028): attenuated
- HDAC3 association with RelA (RelA; Caco-2 cells co-cultured with S. enteritidis and B. thetaiotaomicron, 2 hours): promoted
- Co-purification of RelA with PPARγ (RelA; cells treated with S. enteritidis in the presence of B. thetaiotaomicron): co-purification of RelA
- Ileum (20 cm) MPO (Myeloperoxidase (MPO)): 33.1 ± 6.2^a μg
- Jejunum (20 cm) MPO (Myeloperoxidase (MPO)): 29.3 ± 5.2 µg
- PMN recruitment in vitro (human PMNs): confirmed the anti-inflammatory activity
- Time the bacterium remained viable in jelly [7]: at least 6 hours
